From US7795294B2, “Tetrahydro-2H-indazole pyrazole cannabinoid modulators” (Janssen Pharmaceutica N.V., priority 2006, dated 2010) come the findings set out here.

Like-named read-outs stand apart in the source and are kept apart here.

In one experiment the target is T1, human CB1 receptor (Homo sapiens, UniProt P21554).
T1 construct: expressed in transfected cells; host or cells: SK-N-MC cells, stably transfected with pcDNA3 CB-1 (human); semi-purified membrane pellet
Briefly: Binding assay for CB1 agonists or inverse agonists, [3H]-CP-55,940 displacement on membranes of transfected SK-N-MC cells. The settings on record: for inhibition at 0.2 µM: read-out: Cannabinoid CB1 Receptor Binding percent inhibition. How it is done: (§1) The human CB1 and CB2 receptors were stably expressed in SK-N-MC cells transfected with pcDNA3 CB-1 (human) or pcDNA3 CB-2 (human). The cells were grown in T-180 cell culture flasks under standard cell culture conditions at 37° C. in a 5% CO2 atmosphere. The cells were harvested by trysinization and homogenized in a homogenization buffer (10 mM Tris, 0.2 mM MgCl2, 5 mM KCl, with protease inhibitors aprotinin, leupeptin, pepstatin A and bacitracin) and centrifuged (2000 g). The supernatant was then centrifuged in 2M sucrose (31,300 g) to produce a semi-purified membrane pellet. The pellet was resuspended in homogenization and stored at −80° C.
(§2) On the day of the assay, the pellet was thawed on ice and diluted in assay buffer (50 mM Tris-HCl, 5 mM MgCl2, 2.5 mM EDTA, 0.5 mg/mL fatty acid free bovine serum albumin, pH 7.5). […] The plate was covered and incubated for 90 minutes at 30° C. The contents were then aspirated onto a Packard Unifilter GF/C filter bottom plate prewet with 0.5% polyethyleneimine. The wells of the polypropylene plate were rinsed and aspirated seven times with a 0.9% saline-0.5% Tween 20 solution. The Unifilter plate was dried, a scintillation cocktail was added to each well and the counts representing binding were quantitated in a TopCount scintillation counter.
(§3) For compounds tested, an IC50 binding value was obtained from percent inhibition studies in which various test concentrations were used. The binding value was calculated by linear regression. An average value is shown for those compounds where two or more IC50 values were obtained.
(§4) An average value is shown for those compounds where two or more percent inhibition values were obtained.

The next experiment addresses T2, human CB2 receptor (Homo sapiens, UniProt P34972).
T2 construct: expressed in transfected cells; host or cells: SK-N-MC cells, stably transfected with pcDNA3 CB-2 (human); semi-purified membrane pellet
The experiment is described as follows: Binding assay for CB2 agonists or inverse agonists, [3H]-CP-55,940 displacement on membranes of transfected SK-N-MC cells. How it is done:
as §1, §2, §3, §4

The mark [1] stands for this setting: read-out: Cannabinoid CB2 Receptor Binding percent inhibition.

One may read the IC50 as the concentration needed to halve the response being measured. A word on the inhibition: it is how much of the control response was suppressed.

T1 sequence (P21554 whole entry): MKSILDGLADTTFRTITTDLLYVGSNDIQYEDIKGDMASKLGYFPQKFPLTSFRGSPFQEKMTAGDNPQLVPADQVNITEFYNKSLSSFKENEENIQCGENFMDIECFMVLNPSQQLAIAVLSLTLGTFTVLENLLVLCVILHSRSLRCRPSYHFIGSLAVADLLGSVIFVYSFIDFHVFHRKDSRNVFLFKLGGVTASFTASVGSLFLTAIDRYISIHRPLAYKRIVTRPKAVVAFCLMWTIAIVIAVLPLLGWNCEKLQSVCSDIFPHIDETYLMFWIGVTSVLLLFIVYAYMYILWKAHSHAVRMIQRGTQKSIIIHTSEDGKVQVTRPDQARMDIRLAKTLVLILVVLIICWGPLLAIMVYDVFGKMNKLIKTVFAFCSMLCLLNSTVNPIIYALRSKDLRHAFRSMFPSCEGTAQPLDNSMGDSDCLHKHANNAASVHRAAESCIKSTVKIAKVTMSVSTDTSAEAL
T2 sequence (P34972 whole entry): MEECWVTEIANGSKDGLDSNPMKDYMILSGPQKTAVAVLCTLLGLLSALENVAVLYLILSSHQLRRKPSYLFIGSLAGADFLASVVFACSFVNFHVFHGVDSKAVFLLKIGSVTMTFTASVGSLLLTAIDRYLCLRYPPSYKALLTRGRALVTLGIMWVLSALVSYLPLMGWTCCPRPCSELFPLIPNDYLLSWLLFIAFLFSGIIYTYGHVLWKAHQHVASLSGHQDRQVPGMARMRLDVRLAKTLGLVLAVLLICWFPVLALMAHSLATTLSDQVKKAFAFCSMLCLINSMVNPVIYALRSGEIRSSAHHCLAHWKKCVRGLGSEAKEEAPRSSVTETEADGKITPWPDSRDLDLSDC

Take `COc1ccc(-n2nc3c(c2-c2ccc(C)cc2)CCCC3C(=O)NC(C)C23CCC4CC(CC4C2)C3)cc1` (stereo not drawn) [Cpd 2, 2-(4-methoxy-phenyl)-3-p-tolyl-4,5,6,7-tetrahydro-2H-indazole-7-carboxylic acid [1-(octahydro-2,5-methano-inden-5-yl)-ethyl]-amide]: the IC50 on human CB1 receptor was determined as 2130 nM; on human CB2 receptor it was 2600 nM.

As to `CCOC(=O)[C@H]1C2CCC(C2)[C@@H]1NC(=O)C1CCCc2c1nn(-c1ccc(OC)cc1)c2-c1ccc(C)cc1` (stereo partly drawn) [Cpd 3, (2S,3S)-3-{[2-(4-methoxy-phenyl)-3-p-tolyl-4,5,6,7-tetrahydro-2H-indazole-7-carbonyl]-amino}-bicyclo[2.2.1]heptane-2-carboxylic acid ethyl ester], the IC50 amounted to 60 nM on human CB1 receptor and 370 nM at human CB2 receptor (radioligand CP-55,940 0.2 nM, average where two or more values, read-out: Cannabinoid CB2 Receptor Binding IC50).

Take `CC12CCC(C1)C(C)(C)C2NC(=O)C1CCCc2c1nn(Cc1ccccc1)c2-c1ccc(Cl)cc1` (stereo not drawn) [Cpd 4, 2-benzyl-3-(4-chloro-phenyl)-4,5,6,7-tetrahydro-2H-indazole-7-carboxylic acid (1,3,3-trimethyl-bicyclo[2.2.1]hept-2-yl)-amide]: the IC50 at human CB1 receptor turned out to be 5520 nM; on human CB2 receptor it was 3900 nM.

Consider `CC(NC(=O)C1CCCc2c1nn(Cc1ccccc1)c2-c1ccc(Cl)cc1)C1CCCCC1` (stereo not drawn) [Cpd 5, 2-benzyl-3-(4-chloro-phenyl)-4,5,6,7-tetrahydro-2H-indazole-7-carboxylic acid (1-cyclohexyl-ethyl)-amide], for which the figures for the IC50 at human CB1 receptor and on human CB2 receptor were 700 nM and 6100 nM, respectively.

In the case of `Cc1ccc(-c2c3c(nn2Cc2ccccc2)C(C(=O)NC2C4(C)CCC(C4)C2(C)C)CCC3)cc1` (stereo not drawn) [Cpd 6, 2-benzyl-3-p-tolyl-4,5,6,7-tetrahydro-2H-indazole-7-carboxylic acid (1,3,3-trimethyl-bicyclo[2.2.1]hept-2-yl)-amide], the IC50 on human CB1 receptor was found to be 400 nM; on human CB2 receptor, 840 nM.

As to `Cc1ccc(-c2c3c(nn2Cc2ccccc2)C(C(=O)NC(C)C24CC5CC(CC(C5)C2)C4)CCC3)cc1` (stereo not drawn) [Cpd 7, 2-benzyl-3-p-tolyl-4,5,6,7-tetrahydro-2H-indazole-7-carboxylic acid (1-adamantan-1-yl-ethyl)-amide], the IC50 is 370 nM at human CB1 receptor and 800 nM at human CB2 receptor.

As to `Cc1ccc(-c2c3c(nn2Cc2ccccc2)C(C(=O)NC(C)C2CCCCC2)CCC3)cc1` (stereo not drawn) [Cpd 8, 2-benzyl-3-p-tolyl-4,5,6,7-tetrahydro-2H-indazole-7-carboxylic acid (1-cyclohexyl-ethyl)-amide], the values for the IC50 on human CB1 receptor and on human CB2 receptor were 240 nM and 1100 nM, respectively.

For the compound `CC(NC(=O)C1CCCc2c1nn(Cc1ccccc1)c2-c1cccc(F)c1)C1CCCCC1` (stereo not drawn) [Cpd 9, 2-benzyl-3-(3-fluoro-phenyl)-4,5,6,7-tetrahydro-2H-indazole-7-carboxylic acid (1-cyclohexyl-ethyl)-amide], the IC50 at human CB1 receptor was 3500 nM; on human CB2 receptor, 2130 nM.

In the case of `COc1ccc(-n2nc3c(c2-c2ccc(C)cc2)CCCC3C(=O)N[C@H]2C3(C)CCC(C3)C2(C)C)cc1` (stereo partly drawn) [Cpd 16, 2-(4-methoxy-phenyl)-3-p-tolyl-4,5,6,7-tetrahydro-2H-indazole-7-carboxylic acid [(2S)-1,3,3-trimethyl-bicyclo[2.2.1]hept-2-yl]-amide], the IC50 on human CB1 receptor (radioligand CP-55,940 0.2 nM, average where two or more values, read-out: Cannabinoid CB1 Receptor Binding IC50) came to 180 nM. Also, the inhibition at 25 µM at human CB2 receptor (setting [1]) came to 66%.

Consider `COc1ccc(-n2nc3c(c2-c2ccc(C)cc2)CCCC3C(=O)N[C@@H]2C3CCC(C3)[C@@H]2CO)cc1` (stereo partly drawn) [Cpd 17, 2-(4-methoxy-phenyl)-3-p-tolyl-4,5,6,7-tetrahydro-2H-indazole-7-carboxylic acid [(2R,3S)-3-hydroxymethyl-bicyclo[2.2.1]hept-2-yl]-amide], for which the half-maximal inhibitory concentration (IC50) on human CB1 receptor stood at 1800 nM; on human CB2 receptor, 1570 nM.

For the compound `CC(NC(=O)C1CCCc2c1nn(Cc1ccccc1)c2-c1ccc(Cl)cc1)C12CC3CC(CC(C3)C1)C2` (stereo not drawn) [Cpd 18, 2-benzyl-3-(4-chloro-phenyl)-4,5,6,7-tetrahydro-2H-indazole-7-carboxylic acid (1-adamantan-1-yl-ethyl)-amide], the IC50 at human CB1 receptor turned out to be 6200 nM; at human CB2 receptor, 1900 nM.

With `CC12CCC(C1)C(C)(C)[C@H]2NC(=O)C1CCCc2c1nn(Cc1ccccc1)c2-c1cccc(F)c1` (stereo partly drawn) [Cpd 19, 2-benzyl-3-(3-fluoro-phenyl)-4,5,6,7-tetrahydro-2H-indazole-7-carboxylic acid [(2S)-1,3,3-trimethyl-bicyclo[2.2.1]hept-2-yl]-amide], the IC50 at human CB1 receptor stood at 400 nM; at human CB2 receptor it was 290 nM.

Consider `CC(NC(=O)C1CCCc2c1nn(Cc1ccccc1)c2-c1cccc(F)c1)C12CCC3CC(CC3C1)C2` (stereo not drawn) [Cpd 20, 2-benzyl-3-(3-fluoro-phenyl)-4,5,6,7-tetrahydro-2H-indazole-7-carboxylic acid [1-(octahydro-2,5-methano-inden-5-yl)-ethyl]-amide], for which the IC50 came to 130 nM on human CB1 receptor and 70 nM on human CB2 receptor.

Regarding `COc1ccc(-c2c3c(nn2-c2ccc(Cl)cc2Cl)C(C(=O)NN2CCCCC2)CCC3)cc1` (stereo not drawn) [Cpd 21, 2-(2,4-dichloro-phenyl)-3-(4-methoxy-phenyl)-4,5,6,7-tetrahydro-2H-indazole-7-carboxylic acid piperidin-1-ylamide], the figures for the inhibition at 0.2 µM at human CB1 receptor and on human CB2 receptor (setting [1]) were 42% and 18%, respectively.

`COc1ccc(-c2c3c(nn2-c2ccc(Cl)cc2Cl)C(C(=O)NN2CCCCCC2)CCC3)cc1` (stereo not drawn) [Cpd 22, 2-(2,4-dichloro-phenyl)-3-(4-methoxy-phenyl)-4,5,6,7-tetrahydro-2H-indazole-7-carboxylic acid azepan-1-ylamide]: the inhibition at 0.2 µM was found to be 59% on human CB1 receptor and 22% at human CB2 receptor (setting [1]).

On human CB1 receptor, `COc1ccc(-c2c3c(nn2-c2ccc(Cl)cc2Cl)C(C(=O)N[C@H](C)c2ccccc2)CCC3)cc1` (stereo partly drawn) [Cpd 23, 2-(2,4-dichloro-phenyl)-3-(4-methoxy-phenyl)-4,5,6,7-tetrahydro-2H-indazole-7-carboxylic acid [(1R)-1-phenyl-ethyl]-amide] displayed an IC50 of 8 nM. The inhibition at 0.2 µM at human CB2 receptor (setting [1]) was found to be 28%.

In the case of `COc1ccc(-c2c3c(nn2-c2ccc(Cl)cc2Cl)[C@H](C(=O)N[C@H](C)c2ccccc2)CCC3)cc1` [Cpd 24, (7R)-2-(2,4-dichloro-phenyl)-3-(4-methoxy-phenyl)-4,5,6,7-tetrahydro-2H-indazole-7-carboxylic acid [(1R)-1-phenyl-ethyl]-amide], the inhibition at 0.2 µM on human CB1 receptor worked out at 58%; at human CB2 receptor (setting [1]), 28%.

Take `COc1ccc(-c2c3c(nn2-c2ccc(Cl)cc2Cl)[C@@H](C(=O)N[C@H](C)c2ccccc2)CCC3)cc1` [Cpd 25, (7S)-2-(2,4-dichloro-phenyl)-3-(4-methoxy-phenyl)-4,5,6,7-tetrahydro-2H-indazole-7-carboxylic acid [(1R)-1-phenyl-ethyl]-amide]: at human CB1 receptor, the IC50 came out at 4 nM. Also, at human CB2 receptor (setting [1]), the inhibition at 0.2 µM was found to be 35%.

Consider `COc1ccc(-c2c3c(nn2-c2ccc(Cl)cc2Cl)C(C(=O)NN(C)c2ccccc2)CCC3)cc1` (stereo not drawn) [Cpd 26, 2-(2,4-dichloro-phenyl)-3-(4-methoxy-phenyl)-4,5,6,7-tetrahydro-2H-indazole-7-carboxylic acid N′-methyl-N′-phenyl-hydrazide], for which, on human CB1 receptor, the IC50 came out at 6 nM. For the same compound, the inhibition at 0.2 µM at human CB2 receptor (setting [1]) worked out at 32%.

As to `COc1ccc(-c2c3c(nn2-c2ccc(Cl)cc2Cl)C(C(=O)N[C@H](C)c2ccccn2)CCC3)cc1` (stereo partly drawn) [Cpd 27, 2-(2,4-dichloro-phenyl)-3-(4-methoxy-phenyl)-4,5,6,7-tetrahydro-2H-indazole-7-carboxylic acid [(1R)-1-pyridin-2-yl-ethyl]-amide], the concentration for half-maximal inhibition (IC50) at human CB1 receptor was 31 nM.
